Values quoted from earlier work as cited in US20090110646A1, “Product for Treating the Skin and Mucous Membranes, and Relative Method of Preparation” (priority 2005, published 2009).

Structure (SMILES): O=C(O)C(Cl)(Cl)Cl [TCA, trichloracetic acid]
- depth of dermal necrosis (solution of TCA at about 30-40% w/w): 0.3-0.5 mm
- effect on skin (solution of TCA in a concentration of less than 25% w/w): exfoliation of the epidermis
- time of eschar (crust) until skin renewal (very concentrated TCA): 7 to 10 days
